ChEMBL document CHEMBL6083284, “Identification of TAK-756, A Potent TAK1 Inhibitor for the Treatment of Osteoarthritis through Intra-Articular Administration” (J Med Chem, 2024)
In brackets after ≈: the same amount, converted by molar mass.

Experiments:
[1] = Thermodynamic solubility in simulated synovial fluid containing PBS/BSA incubated for 20 hrs by HPLC-HRMS analysis; assay type: physicochemical; details: read-out: Therm_solubility
[2] = Inhibition of IL-6 production in human SW982 cells by Nano-Glo HiBit assay; details: SW982, read-out: pEC50 (converted)
[3] = Inhibition of MMP3 production in human C20/A4 cells by Nano-Glo HiBit assay; details: C20/A4, read-out: pEC50 (converted)
[4] = Partition coefficient, logP of compound in octanol/water; assay type: physicochemical
[5] = Terminal half life in plasma of Sprague-Dawley rat at 250 ug, IART measured for 168 hrs by LC-MS/MS analysis; assay type: ADME, cell-free; details: dose 250 µg, read-out: beta t1/2 (converted)
[6] = Drug concentration in synovial fluid of Sprague-Dawley rat at 250 ug, IART measured for 168 hrs by LC-MS/MS analysis; assay type: ADME, tissue-based; details: for concentration at 168 h: Sprague-Dawley, synovial fluid, 250 ug, read-out: Ct
[7] = Free drug concentration in synovial fluid of Sprague-Dawley rat at 250 ug, IART measured for 168 hrs by LC-MS/MS analysis; assay type: ADME, tissue-based; details: in vivo, other, dose 250 µg
[8] = Protein binding in bovine synovial fluid assessed as unbound fraction at 5 uM incubated for 4 hrs by rapid equilibrium dialysis; assay type: ADME, tissue-based, Bos taurus; details: cattle
[9] = Solubility in simulated synovial fluid; assay type: physicochemical
[10] = Lipophilicity, logD of compound; assay type: physicochemical; details: octanol/water
[11] = Drug uptake in tibia of Sprague-Dawley rat assessed as accumulation at synovial membrane of tibial plateau at 50 ug, IART measured for 168 hrs by LC-MS/MS analysis; assay type: ADME, tissue-based; details: in vivo, other, dose 50 µg
[12] = Drug uptake in synovial fluid of Sprague-Dawley rat at 50 ug, IART measured after 72 hrs by LC-MS/MS analysis; assay type: ADME, tissue-based; details: in vivo, other, dose 50 µg
[13] = Drug uptake in tibia of Sprague-Dawley rat assessed as accumulation at cartilage tissue of tibial plateau at 50 ug, IART measured for 168 hrs by LC-MS/MS analysis; assay type: ADME, tissue-based; details: in vivo, other, dose 50 µg
[14] = Drug concentration in plasma of Sprague-Dawley rat at 50 ug, IART measured for 168 hrs by LC-MS/MS analysis; assay type: ADME, cell-free; details: dose 50 µg
[15] = Drug concentration in plasma of Sprague-Dawley rat at 50 ug, IART measured after 24 hrs by LC-MS/MS analysis; assay type: ADME, cell-free; details: dose 50 µg
[16] = Toxicity in Sprague-Dawley rat assessed as drug tolerance at 50 ug, IART measured for 168 hrs by LC-MS/MS analysis; details: in vivo, other, dose 50 µg
[17] = system: Mitogen-activated protein kinase kinase kinase 7 (TAK1, Rattus norvegicus); test: In vivo inhibition of TAK1 in Lewis/Or1Rj naive rat model of joint inflammation assessed as reduction in CXCL1 level at 15 ug, IART pretreated with compound 72 hrs prior to LPS/MSU treatment measured after 4 hrs relative to control; details: dose 15.0 µg, time 76.0 hrs
Rattus norvegicus [18] = organism: Rattus norvegicus; test: Effect on Mmp3 mRNA level in meniscus of Lewis/Or1Rj naive rat model of joint inflammation >=30 ug, IART pretreated with compound 72 hrs prior to LPS/MSU treatment measured after 4 hrs by qPCR analysis; assay type: functional, organism-based; details: dose >= 30.0 µg, time 76.0 hrs
[19] = Drug concentration in tibia of Sprague-Dawley rat assessed as accumulation in synovial membrane of tibial plateau at 250 ug, IART measured for 168 hrs by LC-MS/MS analysis; assay type: ADME; details: dose 250 µg, read-out: Ct
[20] = Unbound drug concentration in Lewis/Or1Rj naive rat model of joint inflammation at >60 ug, IART pretreated with compound 72 hrs prior to LPS/MSU treatment measured after 4 hrs; assay type: ADME; details: in vivo, other, 76 h, dose > 60 µg
[21] = Drug uptake in synovial fluid of Lewis/Or1Rj naive rat model of joint inflammation administered intra-articularly pretreated with compound 72 hrs prior to LPS/MSU treatment measured after 4 hrs; assay type: ADME; details: in vivo, other, 76 h, route iart, dose < 240 µg
[22] = target: TRAF2 and NCK-interacting protein kinase (Homo sapiens) (UniProt Q9UKE5); test: Inhibition of TNIK (unknown origin) at 1 uM relative to control
[23] = Drug concentration in tibia of Sprague-Dawley rat assessed as accumulation in tibial plateau at 250 ug, IART measured for 168 hrs by LC-MS/MS analysis; assay type: ADME, tissue-based; details: dose 250 µg, read-out: Drug uptake
[24] = system: Mitogen-activated protein kinase kinase kinase 7 (TAK1, Rattus norvegicus); test: In vivo inhibition of TAK1 in Lewis/Or1Rj naive rat model of joint inflammation assessed as reduction in CXCL1 level administered intra-articularly pretreated with compound 72 hrs prior to LPS/MSU treatment measured after 4 hrs; details: dose <= 240.0 µg, route iart, time 76.0 hrs
Rattus norvegicus [25] = test: Downregulation of Cxcl1 mRNA level in meniscus of Lewis/Or1Rj naive rat model of joint inflammation administered intra-articularly pretreated with compound 72 hrs prior to LPS/MSU treatment measured after 4 hrs by qPCR analysis; assay type: functional, organism-based; details: dose <= 240.0 µg, route iart, time 76.0 hrs
[26] = target: Dual specificity protein kinase CLK4 (Homo sapiens) (UniProt Q9HAZ1); test: Inhibition of CLK4 (unknown origin) at 1 uM relative to control
Rattus norvegicus [27] = test: Downregulation of Il6 mRNA level in meniscus of Lewis/Or1Rj naive rat model of joint inflammation administered intra-articularly pretreated with compound 72 hrs prior to LPS/MSU treatment measured after 4 hrs by qPCR analysis; assay type: functional, organism-based; details: dose <= 240.0 µg, route iart, time 76.0 hrs
[28] = target: T1, Interleukin-1 receptor-associated kinase 4 (Homo sapiens) (UniProt Q9NWZ3); test: Inhibition of IRAK4 (unknown origin) at 1 uM relative to control
T1 sequence (whole entry): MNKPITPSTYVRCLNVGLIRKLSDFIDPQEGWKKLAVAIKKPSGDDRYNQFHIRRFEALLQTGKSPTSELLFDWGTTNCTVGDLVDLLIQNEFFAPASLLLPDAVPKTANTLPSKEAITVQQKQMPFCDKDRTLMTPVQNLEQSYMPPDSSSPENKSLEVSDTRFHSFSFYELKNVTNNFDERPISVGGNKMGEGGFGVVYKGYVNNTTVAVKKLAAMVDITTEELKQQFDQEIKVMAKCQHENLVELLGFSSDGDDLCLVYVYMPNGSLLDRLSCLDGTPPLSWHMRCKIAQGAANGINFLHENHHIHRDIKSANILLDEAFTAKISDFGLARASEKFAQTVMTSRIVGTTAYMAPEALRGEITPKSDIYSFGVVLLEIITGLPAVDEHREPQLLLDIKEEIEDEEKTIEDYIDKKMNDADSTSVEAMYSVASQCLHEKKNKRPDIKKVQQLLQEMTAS

[29] = target: Receptor-type tyrosine-protein kinase FLT3 (Homo sapiens) (UniProt P36888); test: Inhibition of FLT3 (unknown origin) at 1 uM relative to control
[30] = target: Interleukin-1 receptor-associated kinase 1 (Homo sapiens) (UniProt P51617); test: Inhibition of IRAK1 (unknown origin) at 1 uM relative to control
[31] = Drug concentration in Lewis/Or1Rj naive rat model of joint inflammation at >60 ug, IART pretreated with compound 72 hrs prior to LPS/MSU treatment measured after 4 hrs; assay type: ADME; details: in vivo, dose > 60 µg, read-out: Ct
[32] = target: Misshapen-like kinase 1 (Homo sapiens) (UniProt Q8N4C8); test: Inhibition of MINK1 (unknown origin) at 1 uM relative to control
[33] = target: Mitogen-activated protein kinase kinase kinase kinase 4 (Homo sapiens) (UniProt O95819); test: Inhibition of MAP4K4 (unknown origin) at 1 uM relative to control

Dual specificity protein kinase CLK4 (Homo sapiens), sequence (Q9HAZ1 whole entry, looked up): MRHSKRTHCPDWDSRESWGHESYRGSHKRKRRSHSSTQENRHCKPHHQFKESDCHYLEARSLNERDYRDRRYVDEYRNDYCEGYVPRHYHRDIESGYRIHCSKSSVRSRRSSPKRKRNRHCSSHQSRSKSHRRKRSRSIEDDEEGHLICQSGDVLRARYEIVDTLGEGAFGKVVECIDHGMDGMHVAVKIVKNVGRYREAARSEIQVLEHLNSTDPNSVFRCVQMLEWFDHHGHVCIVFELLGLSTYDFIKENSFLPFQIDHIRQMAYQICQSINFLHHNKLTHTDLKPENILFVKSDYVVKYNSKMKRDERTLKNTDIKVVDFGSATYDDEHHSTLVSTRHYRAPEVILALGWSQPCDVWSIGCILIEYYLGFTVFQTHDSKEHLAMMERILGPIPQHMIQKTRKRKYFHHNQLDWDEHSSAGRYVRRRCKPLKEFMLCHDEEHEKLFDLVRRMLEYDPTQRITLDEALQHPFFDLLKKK
Misshapen-like kinase 1 (Homo sapiens), sequence (Q8N4C8 whole entry, looked up): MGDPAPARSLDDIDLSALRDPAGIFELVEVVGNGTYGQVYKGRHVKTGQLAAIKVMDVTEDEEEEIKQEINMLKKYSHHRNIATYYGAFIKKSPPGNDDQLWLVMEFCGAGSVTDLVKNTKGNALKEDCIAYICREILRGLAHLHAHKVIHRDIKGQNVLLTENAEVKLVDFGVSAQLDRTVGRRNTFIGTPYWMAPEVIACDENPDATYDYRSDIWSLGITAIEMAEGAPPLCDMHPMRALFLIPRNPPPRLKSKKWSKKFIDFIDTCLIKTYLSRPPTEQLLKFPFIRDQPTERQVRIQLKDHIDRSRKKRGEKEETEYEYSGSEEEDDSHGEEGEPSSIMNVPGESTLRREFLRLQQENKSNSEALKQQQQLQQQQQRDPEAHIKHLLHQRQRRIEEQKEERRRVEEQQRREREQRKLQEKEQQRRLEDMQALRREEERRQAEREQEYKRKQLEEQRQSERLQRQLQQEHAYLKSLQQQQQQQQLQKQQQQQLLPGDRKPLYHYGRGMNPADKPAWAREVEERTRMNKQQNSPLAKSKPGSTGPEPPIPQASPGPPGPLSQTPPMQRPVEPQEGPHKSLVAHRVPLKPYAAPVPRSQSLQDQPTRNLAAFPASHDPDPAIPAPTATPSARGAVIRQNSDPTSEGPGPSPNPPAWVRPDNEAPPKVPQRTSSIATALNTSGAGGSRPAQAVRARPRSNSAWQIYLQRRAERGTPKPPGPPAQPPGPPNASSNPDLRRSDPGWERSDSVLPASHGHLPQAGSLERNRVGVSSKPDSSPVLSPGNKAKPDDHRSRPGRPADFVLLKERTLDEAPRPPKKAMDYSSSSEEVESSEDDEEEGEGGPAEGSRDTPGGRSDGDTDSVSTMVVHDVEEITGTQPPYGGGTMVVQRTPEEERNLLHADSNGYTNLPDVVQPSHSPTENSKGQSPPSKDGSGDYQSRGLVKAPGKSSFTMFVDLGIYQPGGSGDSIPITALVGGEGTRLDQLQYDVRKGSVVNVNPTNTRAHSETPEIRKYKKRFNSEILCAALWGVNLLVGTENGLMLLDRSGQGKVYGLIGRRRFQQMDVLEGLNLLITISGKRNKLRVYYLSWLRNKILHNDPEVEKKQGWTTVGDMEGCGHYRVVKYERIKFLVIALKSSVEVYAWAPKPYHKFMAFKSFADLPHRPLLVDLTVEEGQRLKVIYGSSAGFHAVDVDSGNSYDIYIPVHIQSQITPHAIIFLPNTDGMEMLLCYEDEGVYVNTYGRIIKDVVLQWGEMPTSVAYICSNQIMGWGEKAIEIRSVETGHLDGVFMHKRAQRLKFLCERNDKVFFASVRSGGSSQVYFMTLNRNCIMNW
TRAF2 and NCK-interacting protein kinase (Homo sapiens), sequence (Q9UKE5 whole entry, looked up): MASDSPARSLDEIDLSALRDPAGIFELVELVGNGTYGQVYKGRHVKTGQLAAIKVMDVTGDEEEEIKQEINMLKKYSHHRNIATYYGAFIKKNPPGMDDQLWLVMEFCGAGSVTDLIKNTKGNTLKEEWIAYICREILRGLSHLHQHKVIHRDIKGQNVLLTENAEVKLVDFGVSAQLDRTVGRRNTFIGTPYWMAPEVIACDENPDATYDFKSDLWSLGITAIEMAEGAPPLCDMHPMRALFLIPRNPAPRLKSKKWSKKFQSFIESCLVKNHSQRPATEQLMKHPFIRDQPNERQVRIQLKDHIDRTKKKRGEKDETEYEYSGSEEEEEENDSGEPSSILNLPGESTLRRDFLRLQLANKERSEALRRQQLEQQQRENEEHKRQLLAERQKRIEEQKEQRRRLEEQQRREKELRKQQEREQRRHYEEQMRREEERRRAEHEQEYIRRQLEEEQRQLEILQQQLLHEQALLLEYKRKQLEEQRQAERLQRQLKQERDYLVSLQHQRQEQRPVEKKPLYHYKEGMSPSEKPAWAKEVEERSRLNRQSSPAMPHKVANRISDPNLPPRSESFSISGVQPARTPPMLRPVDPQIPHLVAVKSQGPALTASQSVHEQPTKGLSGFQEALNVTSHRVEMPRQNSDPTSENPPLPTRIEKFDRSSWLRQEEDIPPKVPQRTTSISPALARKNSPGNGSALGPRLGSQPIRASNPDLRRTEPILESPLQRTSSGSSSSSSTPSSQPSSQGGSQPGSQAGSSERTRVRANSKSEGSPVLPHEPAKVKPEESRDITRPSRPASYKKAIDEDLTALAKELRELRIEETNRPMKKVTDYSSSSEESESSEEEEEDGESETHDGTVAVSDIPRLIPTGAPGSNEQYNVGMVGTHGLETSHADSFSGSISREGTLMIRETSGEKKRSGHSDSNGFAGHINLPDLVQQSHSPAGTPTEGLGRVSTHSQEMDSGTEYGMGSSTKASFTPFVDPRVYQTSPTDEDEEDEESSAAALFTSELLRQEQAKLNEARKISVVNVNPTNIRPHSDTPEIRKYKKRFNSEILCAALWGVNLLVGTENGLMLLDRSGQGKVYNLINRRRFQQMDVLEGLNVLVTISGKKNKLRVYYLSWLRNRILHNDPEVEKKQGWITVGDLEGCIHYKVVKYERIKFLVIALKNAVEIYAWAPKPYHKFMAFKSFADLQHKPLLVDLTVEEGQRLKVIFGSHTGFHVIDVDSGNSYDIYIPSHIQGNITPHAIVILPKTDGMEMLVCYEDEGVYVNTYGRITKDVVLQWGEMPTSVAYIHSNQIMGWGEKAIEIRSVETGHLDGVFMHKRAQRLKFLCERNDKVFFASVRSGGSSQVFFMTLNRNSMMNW
Interleukin-1 receptor-associated kinase 1 (Homo sapiens), sequence (P51617 whole entry, looked up): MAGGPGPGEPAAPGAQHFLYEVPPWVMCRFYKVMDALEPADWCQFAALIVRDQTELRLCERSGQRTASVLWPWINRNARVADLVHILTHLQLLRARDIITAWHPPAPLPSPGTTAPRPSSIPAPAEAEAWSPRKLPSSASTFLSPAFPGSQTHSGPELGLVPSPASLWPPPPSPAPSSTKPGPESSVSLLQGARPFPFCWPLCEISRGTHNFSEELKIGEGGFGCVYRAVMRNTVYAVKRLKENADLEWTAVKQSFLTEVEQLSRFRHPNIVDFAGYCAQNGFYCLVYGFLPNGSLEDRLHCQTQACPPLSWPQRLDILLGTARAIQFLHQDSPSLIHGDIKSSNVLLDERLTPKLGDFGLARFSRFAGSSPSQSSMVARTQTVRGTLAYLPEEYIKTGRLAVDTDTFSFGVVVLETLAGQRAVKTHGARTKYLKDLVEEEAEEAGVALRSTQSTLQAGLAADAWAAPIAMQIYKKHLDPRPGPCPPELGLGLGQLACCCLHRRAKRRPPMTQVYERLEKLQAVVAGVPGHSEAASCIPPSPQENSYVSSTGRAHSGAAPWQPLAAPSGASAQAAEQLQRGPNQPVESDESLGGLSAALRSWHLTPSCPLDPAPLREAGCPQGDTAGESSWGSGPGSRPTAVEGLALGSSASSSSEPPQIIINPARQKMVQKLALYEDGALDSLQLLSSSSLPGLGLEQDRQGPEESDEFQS
Receptor-type tyrosine-protein kinase FLT3 (Homo sapiens), sequence (P36888 whole entry): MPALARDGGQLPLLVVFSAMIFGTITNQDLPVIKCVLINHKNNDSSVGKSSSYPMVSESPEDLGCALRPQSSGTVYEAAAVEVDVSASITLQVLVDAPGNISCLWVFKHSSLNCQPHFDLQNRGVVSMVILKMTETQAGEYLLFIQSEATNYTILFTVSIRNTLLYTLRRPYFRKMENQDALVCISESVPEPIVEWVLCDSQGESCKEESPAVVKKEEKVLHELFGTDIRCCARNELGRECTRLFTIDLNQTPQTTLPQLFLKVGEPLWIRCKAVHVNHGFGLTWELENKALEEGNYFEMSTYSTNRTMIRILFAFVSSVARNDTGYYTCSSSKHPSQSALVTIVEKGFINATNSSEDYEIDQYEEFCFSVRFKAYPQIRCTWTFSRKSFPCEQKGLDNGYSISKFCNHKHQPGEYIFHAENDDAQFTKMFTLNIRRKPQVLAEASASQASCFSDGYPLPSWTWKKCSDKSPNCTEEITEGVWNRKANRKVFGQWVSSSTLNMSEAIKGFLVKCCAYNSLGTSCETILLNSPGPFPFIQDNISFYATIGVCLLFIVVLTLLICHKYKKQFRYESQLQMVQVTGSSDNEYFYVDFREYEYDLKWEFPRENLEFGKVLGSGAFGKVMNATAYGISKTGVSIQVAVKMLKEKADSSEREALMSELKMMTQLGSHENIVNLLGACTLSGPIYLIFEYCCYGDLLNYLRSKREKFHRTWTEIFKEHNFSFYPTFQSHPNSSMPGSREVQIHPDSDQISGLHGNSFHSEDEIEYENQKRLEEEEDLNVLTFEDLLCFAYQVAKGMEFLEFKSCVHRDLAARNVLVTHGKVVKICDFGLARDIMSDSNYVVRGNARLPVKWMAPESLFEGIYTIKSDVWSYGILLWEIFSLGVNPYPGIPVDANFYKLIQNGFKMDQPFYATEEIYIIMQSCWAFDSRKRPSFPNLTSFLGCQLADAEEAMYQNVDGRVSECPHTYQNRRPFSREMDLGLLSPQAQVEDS

SMILES	solubility thermodynamic at 20 h [1]	EC50 [2]	EC50 [3]	logP [4]	half-life [5]	Drug uptake(free) [7]	fraction unbound at 4 h, 5 µM [8]	concentration at 168 h [6]	further results
NC(=O)c1cccc(-c2cc(-c3ccc(NCC(=O)N4CCS(=O)(=O)CC4)nc3O[C@H]3CC[C@@H](O)CC3)on2)n1	0.13 µM (≈ 0.0742 µg/mL)	631 nM	251 nM	2.4		221 nM	0.452	489 nM	
CN(C)C(=O)c1ccc(-c2cc(-c3cccc(C(N)=O)c3)no2)c(O[C@H]2CC[C@@H](O)CC2)c1	10 µM (≈ 4.5 µg/mL)	126 nM	158 nM	2.8					
CC(C)CC(=O)Nc1cncc(-c2ccc3[nH]nc(-c4nc5c(-c6cccc(F)c6)cncc5[nH]4)c3c2)c1 [LORECIVIVINT]									solubility [9]: 0.8 µM (≈ 0.404 µg/mL); logD [10]: > 4.7
NC(=O)c1cccc(-c2cc(-c3cccnc3O[C@H]3CC[C@@H](O)CC3)on2)n1	4.5 µM (≈ 1.71 µg/mL)	251 nM	158 nM	3.8	7 h	< 1 nM	0.056	14 nM	Drug uptake [11]: Active; Drug uptake [12]: Active; Drug uptake [13]: Active; concentration at 168 h [14]: < 100 nM; concentration at 24 h [15]: 1 nM; Activity [16]: Non-toxic
CNC(=O)CNc1ccc(-c2cc(-c3cccc(C(N)=O)n3)no2)c(O[C@H]2CC[C@@H](O)CC2)n1	2.2 µM (≈ 1.03 µg/mL)	631 nM	50.1 nM	2.8					
CN1Cc2cc(-c3cc(-c4cccc(C(N)=O)c4)no3)c(O[C@H]3CC[C@@H](O)CC3)cc2C1=O	1.8 µM (≈ 0.805 µg/mL)	79.4 nM	79.4 nM	3.3	93 h	1550 nM	0.158	9810 nM	inhibition [17]: > 90%; Activity (Rattus norvegicus [18]): Not active; Less Profound Effect Observed; concentration at 168 h [19]: 631000 nM; Drug uptake(free) [20]: 100 nM; Drug uptake [21]: Dose-dependent-effect; inhibition [22]: 86%; concentration at 168 h [23]: 42000 nM; inhibition [24]: Dose-dependent-effect; Activity (Rattus norvegicus [25]): Dose-dependent-effect; inhibition [26]: 88%; Activity (Rattus norvegicus [27]): Dose-dependent-effect; inhibition [28]: 77%; inhibition [29]: 97%; inhibition [30]: 15%; concentration at 76 h [31]: ≥ 1000 nM; inhibition [32]: 88%; inhibition [33]: 100%

Second part, led by results:

solubility thermodynamic at 20 h [1]	EC50 [2]	EC50 [3]	logP [4]	half-life [5]	Drug uptake(free) [7]	fraction unbound at 4 h, 5 µM [8]	concentration at 168 h [6]	SMILES	further results
0.2 µM (≈ 0.0875 µg/mL)	1000 nM	501 nM	4	11 h	Below_limit_of_detection			CC(=O)Nc1ccc(-c2cc(-c3cccc(C(N)=O)n3)no2)c(O[C@H]2CC[C@@H](O)CC2)n1	Ct ([6]; in vivo, other, 168 h, dose 250 µg): Below_limit_of_detection
1 µM (≈ 0.409 µg/mL)	126 nM	63.1 nM	> 4.7	168 h	35 nM	0.019	1840 nM	CNc1ccc(-c2cc(-c3cccc(C(N)=O)n3)no2)c(O[C@H]2CC[C@@H](O)CC2)n1	
12 µM (≈ 5.41 µg/mL)	251 nM	200 nM	2.8					CN(C)C(=O)c1ccc(-c2cc(-c3cccc(C(N)=O)c3)no2)c(O[C@H]2CC[C@@H](O)CC2)n1	
15 µM (≈ 5.93 µg/mL)	158 nM	63.1 nM	3.6	21 h	11 nM	0.088	120 nM	NC(=O)c1cccc(-c2cc(-c3ccc(N)nc3O[C@H]3CC[C@@H](O)CC3)on2)n1	
2 µM (≈ 0.961 µg/mL)	100 nM	126 nM	3	80 h	326 nM	0.27	1210 nM	CN(C)C(=O)CNc1ccc(-c2cc(-c3cccc(C(N)=O)n3)no2)c(O[C@H]2CC[C@@H](O)CC2)n1	
2.9 µM (≈ 1.31 µg/mL)	79.4 nM	126 nM	3					CN(C)C(=O)c1ccc(-c2cc(-c3cccc(C(N)=O)n3)no2)c(O[C@H]2CC[C@@H](O)CC2)n1	
	1000 nM	126 nM	4.5					COc1ccc(-c2cc(-c3cccc(C(N)=O)n3)no2)c(O[C@H]2CC[C@@H](O)CC2)n1	
